Test results published in PMC5515969, “Effects of 31 FDA approved small-molecule kinase inhibitors on isolated rat liver mitochondria” (Archives of Toxicology, 2016).

Legend:
[1] = ref FDA product labeling, cited from earlier work
[2] = test system: isolated rat liver mitochondria; test: Mitochondrial oxygen consumption (glutamate/malate or succinate driven, state 4 and state 3); type: biochemical; details: for Glutamate/malate driven respiration State 4 / Succinate-driven respiration State 3 / Succinate-driven respiration State 4 / Glutamate/malate driven respiration State 3: oxygen consumption, DMSO-treated = 1; for effect on state 4 respiration: highest tested concentrations; for lowest concentration significantly affecting mitochondrial oxygen consumption: tested at 1 to 100-fold Cmax
Summary of the method: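 Oxygen uptake on glutamate/malate or on succinate defined state 4; ADP added 3 min later gave state 3. Mitochondria isolated from rat liver by differential centrifugation, adjusted to 1 mg/ml and pretreated 5 min with inhibitor (0.1% DMSO final). Values relative to DMSO control, set to 1.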

[3] = test system: isolated rat liver mitochondria; test: Mitochondrial toxicity, any endpoint, intact mitochondria and submitochondrial particles; type: biochemical; details: any endpoint
Summary of the method: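 Rat liver mitochondria isolated by differential centrifugation in sucrose/Tris-MOPS/EGTA buffer pH 7.4, adjusted to 1 mg/ml protein before treatment. Kinase inhibitors added at 1:1000 dilution of stock; final DMSO 0.1%, with 0.1% DMSO controls.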

RCC I–V = test: Activities of RCC I–V, overall statements; type: biochemical, rat; details: submitochondrial particles; for RCCs inhibited: up to 100-fold Cmax or highest testable concentration
Description: KIs were incubated with submitochondrial particles (1 mg/ml) for 15 min and then RCC I–V activities measured. […] The activities of DMSO-treated samples (controls) were set as 1. […] The difference between the activity from rotenone-containing buffer and rotenone-absent buffer was considered as RCC I activity. […] For measuring RCC I/V and II activity, the changes in absorbance at 340 and 600 nm, respectively, were determined every 1 min for 6 min. For measuring RCC III and RCC IV, the changes in absorbance at 550 nm were measured every 10 s for 2 min.

[4] = human therapeutic Cmax at FDA recommended dosages; ref product labeling and drug approval packages at the official FDA website; cited from earlier work
[5] = test system: isolated rat liver mitochondria; test: Mitochondrial inner membrane potential (MMP), Rhodamine 123; type: biochemical; details: for effect on MMP: up to 100-fold Cmax or highest testable concentration
From the text: Fig. 3 KI effects on mitochondrial inner membrane potential (MMP). […] In a, c, data are means and standard derivations from three separate experiments. *p < 0.05 as compared to DMSO-treated samples at the end of experiments. In b, data are means of two independent experiments

[6] = test system: isolated rat liver mitochondria; test: Mitochondrial swelling (absorbance at 535 nm); type: biochemical; details: for effect on mitochondrial swelling: up to 100-fold Cmax or highest testable concentration, 25 µM calcium chloride
RCC III = RCC III activity in submitochondrial particles; type: biochemical, rat; details: 15 min, DMSO-treated = 100
Summary of the method: (§1)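 Absorbance kinetics: A340 (RCC I, V) and A600 (RCC II) read each minute over 6 min, A550 (RCC III, IV) every 10 s over 2 min; RCC I taken as […]. Particles (1 mg/ml) pretreated 15 min with compound; DMSO-treated activity = 1.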

RCC V = RCC V activity in submitochondrial particles; type: biochemical, rat; details: 15 min, DMSO-treated = 100
Summary of the method: as §1

RCC IV = RCC IV activity in submitochondrial particles; type: biochemical, rat; details: 15 min, DMSO-treated = 100
Summary of the method: as §1

RCC I = RCC I activity in submitochondrial particles; type: biochemical, rat; details: 15 min, DMSO-treated = 100
Summary of the method: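 Kinase inhibitors were preincubated 15 min with submitochondrial particles (1 mg/ml) before complex activities were measured. RCC I was the rotenone-sensitive portion (activity without minus with rotenone). RCC I/V was read at 340 nm and RCC II at 600 nm every 1 min for 6 min. RCC III and IV were read at 550 nm every 10 s for 2 min. Activities are normalized to DMSO controls set as 1.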

[7] = test system: isolated rat liver mitochondria; test: Mitochondrial ROS production (CM-H2DCFDA); details: highest tested concentrations

SMILES: COc1cc2nccc(Oc3ccc(NC(=O)C4(C(=O)Nc5ccc(F)cc5)CC4)cc3)c2cc1OC [Cabozantinib]
- DILI potential (based on labeling) [1]: 0
- Glutamate/malate driven respiration State 4 ([2]; 10-fold Cmax): 1.46 ± 0.08
- Succinate-driven respiration State 3 ([2]; 10-fold Cmax): 1.03 ± 0.01
- Succinate-driven respiration State 4 ([2]; 10-fold Cmax): 1.23 ± 0.11
- Glutamate/malate driven respiration State 3 ([2]; 20-fold Cmax): 0.92 ± 0.05
- Glutamate/malate driven respiration State 4 ([2]; 20-fold Cmax): 1.30 ± 0.15
- Succinate-driven respiration State 3 ([2]; 20-fold Cmax): 0.94 ± 0.06
- Succinate-driven respiration State 4 ([2]; 20-fold Cmax): 1.24 ± 0.05
- Glutamate/malate driven respiration State 4 ([2]; 30-fold Cmax): 1.55 ± 0.06
- Succinate-driven respiration State 3 ([2]; 30-fold Cmax): 0.95 ± 0.05
- Succinate-driven respiration State 4 ([2]; 30-fold Cmax): 1.35 ± 0.18
- effect on state 4 respiration [2]: significant increases
- lowest concentration significantly affecting mitochondrial oxygen consumption [2]: tenfold
- lowest concentration causing significant mitochondrial toxicity [3]: 10 fold Cmax
- RCCs inhibited (RCC I–V): both RCC I and RCC II
- Cmax [4]: 2.58 µM
- lowest concentration decreasing MMP [5]: tenfold
- effect on MMP [5]: decrease in MMP
- lowest concentration causing mitochondrial swelling [6]: 20 fold Cmax
- effect on mitochondrial swelling [6]: significant mitochondrial swelling
- RCC activity III (RCC III; 30-fold Cmax): 90.73 ± 14.60 % of control
- RCC activity V (RCC V; 30-fold Cmax): 91.99 ± 8.51 % of control
- RCC activity IV (RCC IV; 30-fold Cmax): 113.10 ± 9.48 % of control
- RCC activity I (RCC I; 30-fold Cmax): 80.97 ± 2.99 % of control

SMILES: CNC(=O)c1cc(Oc2ccc(NC(=O)Nc3ccc(Cl)c(C(F)(F)F)c3)cc2)ccn1 [Sorafenib]
- labeling for DILI ([1]; W&P warnings and precautions, BBW black box warnings): W&P: fatal DILI
- DILI potential (based on labeling) [1]: 1
- Glutamate/malate driven respiration State 3 ([2]; 1-fold Cmax): 1.15 ± 0.09
- Glutamate/malate driven respiration State 4 ([2]; 1-fold Cmax): 2.55 ± 0.27
- Succinate-driven respiration State 3 ([2]; 1-fold Cmax): 1.00 ± 0.10
- Succinate-driven respiration State 4 ([2]; 1-fold Cmax): 1.50 ± 0.21
- Glutamate/malate driven respiration State 3 ([2]; 2.5-fold Cmax): 1.57 ± 0.06
- Glutamate/malate driven respiration State 4 ([2]; 2.5-fold Cmax): 4.92 ± 0.09
- Succinate-driven respiration State 3 ([2]; 2.5-fold Cmax): 0.62 ± 0.05
- Succinate-driven respiration State 4 ([2]; 2.5-fold Cmax): 1.43 ± 0.06
- Glutamate/malate driven respiration State 4 ([2]; 5-fold Cmax): 3.69 ± 0.12
- Succinate-driven respiration State 3 ([2]; 5-fold Cmax): 0.40 ± 0.01
- Succinate-driven respiration State 4 ([2]; 5-fold Cmax): 1.03 ± 0.08
- Glutamate/malate driven respiration State 3 ([2]; 10-fold Cmax): 0.93 ± 0.34
- Glutamate/malate driven respiration State 4 ([2]; 10-fold Cmax): 5.00 ± 1.92
- Succinate-driven respiration State 3 ([2]; 10-fold Cmax): 1.03 ± 0.19
- Succinate-driven respiration State 4 ([2]; 10-fold Cmax): 3.34 ± 0.45
- effect on state 4 respiration [2]: significant increases
- lowest concentration significantly affecting mitochondrial oxygen consumption [2]: equal to Cmax
- lowest concentration causing significant mitochondrial toxicity [3]: equal to the Cmax
- lowest concentration inhibiting RCCs (RCC I–V): fivefold
- RCCs inhibited (RCC I–V): RCC V
- Cmax [4]: 4.3 µM
- effect on ROS production [7]: neither of them affected ROS production
- lowest concentration decreasing MMP [5]: onefold
- effect on MMP [5]: decrease in MMP
- lowest concentration causing mitochondrial swelling [6]: 2.5 fold Cmax
- effect on mitochondrial swelling [6]: significant mitochondrial swelling
- RCC activity III (RCC III; 5-fold Cmax): 97.60 ± 5.50 % of control
- RCC activity III (RCC III; 10-fold Cmax): 94.31 ± 7.47 % of control
- RCC activity V (RCC V; 10-fold Cmax): 65.55 ± 6.34 % of control
- RCC activity IV (RCC IV; 5-fold Cmax): 101.55 ± 3.61 % of control
- RCC activity IV (RCC IV; 10-fold Cmax): 107.65 ± 10.77 % of control
- RCC activity I (RCC I; 5-fold Cmax): 87.23 ± 10.61 % of control
- RCC activity I (RCC I; 10-fold Cmax): 85.45 ± 11.93 % of control
